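All cell lines were grown in 96-well plates and treated with compound for 48 hours. Here, GI50 denotes the concentration required for 50% inhibition of growth.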 Active and inactive are the calls of the source. Rule as the data show it: active = GI50 up to about 1.1 µM and inactive = higher.

Test systems include SF-539; HCT-15; SW-620; U-251; SN12C; OVCAR-3; CAKI-1; Malme-3M; K562; KM12; RXF 393; SF-268; PC-3; MOLT-4; SNB-19; SK-MEL-28; 786-0; HOP-92; NCI-H460; NCI-H522.
Holding throughout (assay): inhibition of tumour cell growth, NCI panel, 48 h

As for `Oc1cccc(Nc2cc(O)nc(O)n2)c1`, the GI50 was > 100 µM (inactive) with SF-539; above 100 µM in the assay on HCT-15; > 100 µM (inactive) with SW-620; > 100 µM (inactive) in the assay on U-251; > 100 µM (inactive) in the assay with SN12C; > 100 µM (inactive) in the assay with OVCAR-3. Moreover, the GI50 with CAKI-1, with Malme-3M, in the assay with K562, in the assay with KM12, in the assay with RXF 393 and in the assay on SF-268 was > 100 µM (inactive) in each case. Further, the GI50 in the assay on PC-3 is > 100 µM (inactive); in the assay on MOLT-4, > 100 µM (inactive); in the assay on SNB-19, > 100 µM (inactive); in the assay with SK-MEL-28, > 100 µM (inactive); with 786-0, > 100 µM (inactive); with HOP-92 it was 66.8 µM (inactive). The GI50 with NCI-H460 and with NCI-H522 was > 100 µM (inactive) each time.

As for `Brc1c(C#CCC(c2ccccc2)(c2ccccc2)c2ccccc2)ccc(C#CCC(c2ccccc2)(c2ccccc2)c2ccccc2)c1Br`, the GI50 in the assay with SF-539 was > 100 µM (inactive); with HCT-15 it was above 100 µM; in the assay on SW-620, > 100 µM (inactive); in the assay with U-251, > 100 µM (inactive); in the assay on SN12C it was > 100 µM (inactive); with OVCAR-3, > 100 µM (inactive). In addition, the GI50 in the assay on CAKI-1, in the assay on Malme-3M, in the assay on K562, in the assay on KM12, in the assay with RXF 393 and in the assay on SF-268 was > 100 µM (inactive) in each case. For the same molecule, the GI50 with PC-3, with MOLT-4, in the assay with SNB-19, with SK-MEL-28, in the assay on 786-0 and with HOP-92 was > 100 µM (inactive) throughout. Moreover, the GI50 with NCI-H460 and with NCI-H522 was > 100 µM (inactive) in each case.

As to `COC(=O)c1cc(C)ccc1CC(Cc1ccc(C)cc1)C(=O)OC` (stereo not given), the GI50 in the assay on SF-539 was 27.5 µM (inactive); in the assay with HCT-15, 10.9 µM; in the assay with SW-620 it was 23.5 µM (inactive); with U-251 it was 42.1 µM (inactive); in the assay on SN12C it was > 65.5 µM (inactive); in the assay on OVCAR-3 it was > 100 µM (inactive). For the same molecule, the GI50 with CAKI-1 was 36.6 µM (inactive); in the assay with Malme-3M, 22 µM (inactive); in the assay on K562, 3.18 µM (inactive); in the assay with KM12, 10.8 µM (inactive); in the assay on RXF 393 it was 2.87 µM (inactive); with SF-268 it was 7.52 µM (inactive). Also, the GI50 was 37.8 µM (inactive) in the assay with PC-3; 5.01 µM (inactive) with MOLT-4; > 100 µM (inactive) in the assay on SNB-19; 67.1 µM (inactive) with SK-MEL-28; 25.7 µM (inactive) in the assay with 786-0; 8.95 µM (inactive) in the assay with HOP-92. Moreover, the GI50 in the assay on NCI-H460 was 40.4 µM (inactive); with NCI-H522, 7.06 µM (inactive).

For `COc1ccc(OC)c2c1C1CCC(=O)N1CN2C(C)=O` (stereo not given), the GI50 with SF-539 was > 100 µM (inactive); in the assay on HCT-15, above 100 µM; in the assay with SW-620, > 100 µM (inactive); with U-251, > 100 µM (inactive); in the assay with SN12C, > 100 µM (inactive); in the assay with OVCAR-3, > 100 µM (inactive). Further, the GI50 with CAKI-1 is > 100 µM (inactive); in the assay on Malme-3M it was > 100 µM (inactive); in the assay on K562, > 100 µM (inactive); in the assay with KM12, > 100 µM (inactive); in the assay on RXF 393 it was > 100 µM (inactive); in the assay on SF-268, 75.5 µM (inactive). The GI50 in the assay on PC-3, in the assay on MOLT-4, in the assay with SNB-19, in the assay with SK-MEL-28, in the assay with 786-0 and in the assay on HOP-92 was > 100 µM (inactive) each time. Also, the GI50 in the assay on NCI-H460 and in the assay with NCI-H522 was > 100 µM (inactive) each time.

In the case of `CC(C)CCOC(=O)NC(Nc1ccc(F)cc1)(C(F)(F)F)C(F)(F)F`, the GI50 with SF-539 is 16.1 µM (inactive); in the assay with HCT-15, 1.68 µM; in the assay with SW-620, 19 µM (inactive); with U-251, 27.3 µM (inactive); with SN12C, 36.1 µM (inactive); with OVCAR-3, 37.4 µM (inactive). Also, the GI50 in the assay with CAKI-1 is 19.5 µM (inactive); in the assay with Malme-3M, > 100 µM (inactive); with K562 it was 0.695 µM (active); in the assay on KM12, 5.98 µM (inactive); with RXF 393 it was > 100 µM (inactive); with SF-268, 34.1 µM (inactive). Also, the GI50 in the assay on PC-3 was 28.1 µM (inactive); with MOLT-4, 19.1 µM (inactive); in the assay with SNB-19, 62.2 µM (inactive); with SK-MEL-28, > 100 µM (inactive); in the assay with 786-0, > 100 µM (inactive); in the assay with HOP-92, 44.2 µM (inactive). Also, the GI50 was 41.3 µM (inactive) with NCI-H460 and 25.8 µM (inactive) in the assay on NCI-H522.

Take `CNC1NC(=O)c2ccccc2N1Cc1ccc(F)cc1` (stereo not given): the GI50 was > 100 µM (inactive) in the assay with SF-539; above 100 µM in the assay with HCT-15; > 100 µM (inactive) with SW-620; > 100 µM (inactive) with U-251; > 100 µM (inactive) in the assay on SN12C; > 100 µM (inactive) in the assay on OVCAR-3. Besides, the GI50 with CAKI-1, in the assay with Malme-3M, with K562, in the assay on KM12, with RXF 393 and in the assay on SF-268 was > 100 µM (inactive) throughout. The GI50 in the assay with PC-3, in the assay on MOLT-4, with SNB-19, in the assay with SK-MEL-28, in the assay on 786-0 and with HOP-92 was > 100 µM (inactive) in each case. The GI50 in the assay on NCI-H460 and with NCI-H522 was > 100 µM (inactive) throughout.

With `O=[N+]([O-])c1ccc2c(c1)Sc1ccccc1N2CCCCCl`, the GI50 in the assay with SF-539 is > 100 µM (inactive); in the assay on HCT-15 it was above 100 µM; in the assay on SW-620, > 100 µM (inactive); in the assay on U-251, > 100 µM (inactive); in the assay on SN12C, > 100 µM (inactive); in the assay with OVCAR-3 it was > 100 µM (inactive). Also, the GI50 in the assay with CAKI-1 was > 100 µM (inactive); in the assay with Malme-3M, > 10 µM (inactive); in the assay with K562, 70.6 µM (inactive); in the assay on KM12, > 100 µM (inactive); in the assay on RXF 393, > 100 µM (inactive); in the assay with SF-268 it was > 100 µM (inactive). Further, the GI50 in the assay on PC-3 is > 100 µM (inactive); in the assay with MOLT-4, 87.9 µM (inactive); with SNB-19, > 100 µM (inactive); in the assay with SK-MEL-28 it was > 100 µM (inactive); in the assay on 786-0, > 100 µM (inactive); in the assay with HOP-92, 24.9 µM (inactive). Further, the GI50 in the assay on NCI-H460 and with NCI-H522 was > 100 µM (inactive) each time.

Take `c1ccc2c(c1)Sc1ccccc1N2CC1CN2CCC1CC2` (stereo not given) [MEQUITAZINE]: the GI50 in the assay with SF-539 was 8.32 µM (inactive); in the assay on HCT-15, 7.18 µM; in the assay on SW-620, 3.58 µM (inactive); in the assay on U-251, 4.24 µM (inactive); in the assay on SN12C, 11.3 µM (inactive); in the assay on OVCAR-3 it was 3.97 µM (inactive). Besides, the GI50 was 8.26 µM (inactive) in the assay with CAKI-1; 1.94 µM (inactive) with Malme-3M; 2.11 µM (inactive) in the assay with K562; 5.08 µM (inactive) with KM12; 2.31 µM (inactive) in the assay on RXF 393; 7.36 µM (inactive) in the assay with SF-268. In addition, the GI50 in the assay on PC-3 is 5.35 µM (inactive); in the assay on MOLT-4, 3.42 µM (inactive); in the assay with SNB-19, 9.23 µM (inactive); with SK-MEL-28 it was 2 µM (inactive); in the assay with 786-0 it was 6.24 µM (inactive); in the assay with HOP-92 it was 11 µM (inactive). Further, the GI50 with NCI-H460 is 3.26 µM (inactive); in the assay with NCI-H522 it was 4.82 µM (inactive).

Consider `O=c1[nH]c(=O)n(C2OC(CO)C(O)C2O)cc1Oc1ccccc1` (stereo not given), for which the GI50 in the assay on SF-539 was > 100 µM (inactive); in the assay with HCT-15 it was above 100 µM; with SW-620, > 100 µM (inactive); in the assay on U-251, > 100 µM (inactive); with SN12C, > 100 µM (inactive); in the assay on OVCAR-3 it was > 100 µM (inactive). The GI50 in the assay with CAKI-1, in the assay on Malme-3M, with K562, in the assay on KM12, with RXF 393 and with SF-268 was > 100 µM (inactive) in each case. Also, the GI50 in the assay with PC-3, with MOLT-4, with SNB-19, with SK-MEL-28, with 786-0 and with HOP-92 was > 100 µM (inactive) each time. Besides, the GI50 with NCI-H460 and in the assay with NCI-H522 was > 100 µM (inactive) each time.

`Cc1ccccc1C(=N)c1ccccc1Cc1cccc2ccccc12`: the GI50 in the assay on SF-539 was 17.6 µM (inactive); in the assay with HCT-15, 18.7 µM; in the assay on SW-620, 21.2 µM (inactive); in the assay on U-251, 18.2 µM (inactive); in the assay with SN12C, 19.2 µM (inactive); with OVCAR-3, 13.1 µM (inactive). Moreover, the GI50 with CAKI-1 is 31 µM (inactive); in the assay with Malme-3M it was 11.5 µM (inactive); with K562, 18.2 µM (inactive); in the assay on KM12, 16.6 µM (inactive); in the assay with RXF 393 it was 5.93 µM (inactive); with SF-268, 20.6 µM (inactive). The GI50 was 40.6 µM (inactive) with PC-3; 14 µM (inactive) in the assay on MOLT-4; 56.1 µM (inactive) in the assay on SNB-19; 20.7 µM (inactive) in the assay on SK-MEL-28; 19.4 µM (inactive) in the assay on 786-0; 17.1 µM (inactive) in the assay on HOP-92. For the same molecule, the GI50 is 15.5 µM (inactive) in the assay on NCI-H460 and 13.1 µM (inactive) in the assay on NCI-H522.

(Values after ChEMBL document CHEMBL1201862, “PubChem BioAssay data set” (2004).)
